Converted amounts (≈) assume the structure as drawn. Like-named read-outs stand apart in the source and are kept apart here.
Legend:
[1] = system: P. aeruginosa K648 (pvd−, pch−); experiment: Agar diffusion antibacterial susceptibility assay; assay type: cell-based, Pseudomonas aeruginosa; details: for zone of inhibition at 200 µM / zone of inhibition at 100 µM: Pseudomonas aeruginosa, 24 h, read-out: Diameter of growth inhibition zones, P. aeruginosa K648 (pvd−, pch−), 37° C., 24 hours; for zone of inhibition at 200 µM: 50 μL of 0.2 mM solution; for zone of inhibition at 100 µM: 50 μL of 0.1 mM solution; for activity against K648 strain (agar diffusion, in words): iron-rich medium
Experimental: (§1) All liquids and media were sterilized by autoclaving (121° C., 15 min) before use. All aqueous solutions and media were prepared using distilled, deionized, and filtered water (Millipore Milli-Q Advantage A10 Water Purification System). Luria broth (LB) was purchased from VWR. Mueller-Hinton No. 2 broth (MHII broth; cation adjusted) was purchased from Sigma-Aldrich (St. Louis, Mo.). Iron-deficient (—Fe) MHII broth was prepared by adding 0.8 mL of a 1 mg/mL sterile aq. solution of 2,2′-bipyridine to 49.2 mL of MHII broth. Iron-rich (+Fe) MHII broth was prepared by adding 0.8 mL of a 1 mg/mL sterile aq. solution of FeCl3 to 49.2 mL of MHII broth. Mueller-Hinton No. 2 agar (MHII agar; HiMedia Laboratories) was purchased from VWR. Iron-deficient (−Fe) MHII agar was prepared by adding 0.5 mL of a 1 mg/mL sterile aq. solution of 2,2′-bipyridine to 34 mL of melted MHII agar with gentle mixing. Iron-rich (+Fe) MHII agar was prepared by adding 0.5 mL of a 1 mg/mL sterile aq. solution of FeCl3 to 34 mL of melted MHII agar with gentle mixing. See also Wencewicz, T. A. Dissertation, University of Notre Dame, Notre Dame, Ind., 2011, for relevant techniques.
(§2) Antibacterial Susceptibility Testing by the Agar Diffusion Assay.
(§3) Antibacterial activity of the compounds was determined by a modified Kirby-Bauer agar diffusion assay. Overnight cultures of test organisms were grown in LB broth for 18-24 h and standard suspensions of […] were prepared in saline solution (0.9% NaCl) according to a 0.5 BaSO4 McFarland Standard. This standardized suspension (0.1 mL) was added to 34 mL of sterile, melted agar (−Fe or +Fe) tempered to 47-50° C. After gentle mixing, the inoculated agar media was poured into a sterile plastic petri dish (145 mm×20 mm) and allowed to solidify near a flame with the lid ajar for about 30 min. Wells of 9.0 mm diameter were cut from the petri dish agar and filled with exactly 50 μL of the test sample solution. The petri dish was incubated at 37° C. for 18-24 h and the inhibition zone diameters were measured (mm) with an electronic caliper after 24 h.

P. aeruginosa KW799/wt = experiment: Agar diffusion antibacterial susceptibility assay; assay type: cell-based, Pseudomonas aeruginosa; details: 37° C.; for zone of inhibition at 200 µM / zone of inhibition at 100 µM: Pseudomonas aeruginosa, KW799/WT, 24 h, read-out: Diameter of growth inhibition zones; for zone of inhibition at 200 µM / Diameter of growth inhibition zones: 50 μL of 0.2 mM solution; for Diameter of growth inhibition zones: 24 hours; for zone of inhibition at 100 µM: 50 μL of 0.1 mM solution
Experimental: as §1, §2, §3

P. aeruginosa Pa6 = experiment: Agar diffusion antibacterial susceptibility assay; assay type: cell-based, Pseudomonas aeruginosa; details: for Diameter of growth inhibition zones: −Fe agar; for activity against clinical isolate Pa6 (agar diffusion, in words): even under iron-deficient conditions
Experimental: as §1, §2, §3

P. aeruginosa PAO1 = experiment: Agar diffusion antibacterial susceptibility assay; assay type: cell-based; details: Pseudomonas aeruginosa, PAO1, 24 h, 37° C., read-out: Diameter of growth inhibition zones; for zone of inhibition at 200 µM: 50 μL of 0.2 mM solution; for zone of inhibition at 100 µM: 50 μL of 0.1 mM solution
Experimental: as §1, §2, §3

E. coli ATCC 25922 = experiment: MIC90 by broth microdilution assay; assay type: cell-based, Escherichia coli; details: for MIC90: Escherichia coli, ATCC25922, 20 h, E. coli ATCC 25922, 37° C., 20 h
Experimental: ^aMIC90 values (μM) were determined using the broth microdilution method in Mueller-Hinton broth No. 2 (MHII) with visual end point analysis according to the CLSI guidelines (Methods for Dilution Antimicrobial Susceptibility Tests for Bacteria that Grow Aerobically, 8th ed. (Villanova, Pa., USA), Clinical and Laboratory Standards Institute (CLSI), 2009, approved standard document M07-A7). ^bEach compound was tested in triplicate.
as §1
Determination of MIC90 Values by the Broth Microdilution Assay.
Antibacterial activity of the compounds was determined by measuring their minimum inhibitory concentrations (MIC90's) using the broth microdilution method according to the Clinical and Laboratory Standards Institute (CLSI, formerly the NCCLS) guidelines. Each well of a 96-well microtiter plate was filled with 50 μL of sterile broth media (−Fe or +Fe). Each test compound was dissolved in DMSO making a 20 mM solution, and then diluted with sterile broth media (−Fe or +Fe) to 400 or 800 μM. Exactly 50 μL of the compound solution was added to the first well of the microtiter plate and 2-fold serial dilutions were made down each row of the plate. Exactly 50 μL of bacterial inoculum (5×10^5 CFU/mL in broth media) was then added to each well giving a total volume of 100 μL/well. The plate was incubated at 37° C. for 20 h and then each well was examined for bacterial growth. The MIC90 was recorded as the lowest compound concentration (μM) required to inhibit 90% of bacterial growth as judged by turbidity of the culture media relative to a row of wells filled with a DMSO standard.

[2] = P. aeruginosa Pa6, 50 μL of 0.2 mM solution, 37° C., 24 hours
[3] = Pseudomonas aeruginosa, P. aeruginosa Pa6, +Fe agar, 50 μL of 0.2 mM solution, 37° C., 24 hours, read-out: Diameter of growth inhibition zones
[4] = −Fe (iron-deficient) MHII broth

| Structure (SMILES) | zone of inhibition at 200 µM ([1]; +Fe agar) [mm] | zone of inhibition at 200 µM ([1]; −Fe agar) [mm] | zone of inhibition at 200 µM (P. aeruginosa KW799/wt; +Fe agar) [mm] | Diameter of growth inhibition zones (P. aeruginosa KW799/wt; −Fe agar) [p] | Diameter of growth inhibition zones (P. aeruginosa Pa6; [2]) [mm] | zone of inhibition at 200 µM (P. aeruginosa Pa6; [3]) [mm] | zone of inhibition at 200 µM (P. aeruginosa PAO1; +Fe agar) [mm] | zone of inhibition at 200 µM (P. aeruginosa PAO1; −Fe agar) [mm] | MIC90 (E. coli ATCC 25922; +Fe (iron-rich) MHII broth) [µM] | MIC90 (E. coli ATCC 25922; [4]) [µM] | activity against K648 strain (agar diffusion, in words) [1] | activity against clinical isolate Pa6 (agar diffusion, in words) (P. aeruginosa Pa6) | other results |
| --- | --- | --- | --- | --- | --- | --- | --- | --- | --- | --- | --- | --- | --- |
| CC1(C)S[C@@H]2[C@H](NC(=O)[C@H](N)c3ccc(O)cc3)C(=O)N2[C@H]1C(=O)O [Amoxicillin, reference compound] | 0 | 0 | 27 | 18 | 0 | 0 | 0 | 0 | 4.17 (≈ 1.52 µg/mL) | 4.17 (≈ 1.52 µg/mL) | – | – | – |
| CC1(C)S[C@@H]2[C@H](NC(=O)[C@H](N)c3ccccc3)C(=O)N2[C@H]1C(=O)O [Ampicillin, reference compound] | 0 | 0 | – | 23 | 0 | 0 | 0 | 0 | 16.7 (≈ 5.84 µg/mL) | 12.5 (≈ 4.37 µg/mL) | – | – | – |
| CC(=O)Oc1cccc(C(=O)NCCCC(CCCNC(=O)c2cccc(OC(C)=O)c2OC(C)=O)(CCCNC(=O)c2cccc(OC(C)=O)c2OC(C)=O)NC(=O)CCC(=O)NC(C(=O)NC2C(=O)N3C2SC(C)(C)C3C(=O)O)c2ccccc2)c1OC(C)=O (stereo not drawn) [Compound 10] | – | – | – | – | – | – | – | – | 150 (≈ 194 µg/mL) | 1.56 (≈ 2.02 µg/mL) | inactive | no activity | zone of inhibition at 100 µM ([1]; +Fe agar): 0 mm; zone of inhibition at 100 µM ([1]; −Fe agar): 15 mm; zone of inhibition at 100 µM (P. aeruginosa KW799/wt; +Fe agar): 20 mm; zone of inhibition at 100 µM (P. aeruginosa KW799/wt; −Fe agar): 24 mm; Diameter of growth inhibition zones (P. aeruginosa Pa6; P. aeruginosa Pa6, 50 μL of 0.1 mM solution, 37° C., 24 hours): 0 mm; zone of inhibition at 100 µM (P. aeruginosa Pa6; Pseudomonas aeruginosa, P. aeruginosa Pa6, +Fe agar, 50 μL of 0.1 mM solution, 37° C., 24 hours, read-out: Diameter of growth inhibition zones): 0 mm; zone of inhibition at 100 µM (P. aeruginosa PAO1; +Fe agar): 0 mm; zone of inhibition at 100 µM (P. aeruginosa PAO1; −Fe agar): 16 mm; increase in activity against E. coli relative to ampicillin (E. coli ATCC 25922; MIC compared with parent drug): 8 fold |
| CC(=O)Oc1cccc(C(=O)NCCCC(CCCNC(=O)c2cccc(OC(C)=O)c2OC(C)=O)(CCCNC(=O)c2cccc(OC(C)=O)c2OC(C)=O)NC(=O)CCC(=O)NC(C(=O)NC2C(=O)N3C2SC(C)(C)C3C(=O)O)c2ccc(O)cc2)c1OC(C)=O (stereo not drawn) [Compound 11] | 0 | 17 | 25 | – | 0 | 0 | 0 | 19 | 100 (≈ 131 µg/mL) | 6.25 (≈ 8.19 µg/mL) | inactive | no activity | zone of inhibition at 200 µM (P. aeruginosa KW799/wt; −Fe agar): 26 mm; potency against E. coli relative to amoxicillin (in words) (E. coli ATCC 25922; MIC compared with parent drug): almost as equipotent as amoxicillin |
